pIC50: −log10 of the molar value. Calls of active or inactive are those of the source. The calls are words filed in the database; no cut-off is given here.
What was measured:
MOLM-13 [1] = assay: Induction of apoptosis in human MOLM-13 cells assessed as viable cells at 0.1 uM incubated for 12 hrs by Annexin V-APC/7-AAD staining based flow cytometry (reference value: 97.12 %); assay type: functional; settings: read-out: Activity
MOLM-13 [2] = assay: Induction of apoptosis in human MOLM-13 cells assessed as early apoptotic cells at 0.1 uM incubated for 6 hrs by Annexin V-APC/7-AAD staining based flow cytometry (reference value: 0.08 %); assay type: functional
MOLM-13 [3] = assay: Antitumor activity against human MOLM-13 cells expressing GFP-Fluc xenografted in IL2Rg-null NSG mouse assessed as reduction in GFP-positive leukemic cells in spleen at 2.5 mg/kg, ip bid treated for 21 days by flow cytometry; assay type: functional, organism-based; settings: time 21.0 day
MOLM-13 [4] = assay: Induction of apoptosis in human MOLM-13 cells assessed as viable cells at 0.1 uM incubated for 24 hrs by Annexin V-APC/7-AAD staining based flow cytometry (reference value: 97.12 %); assay type: functional; settings: read-out: Activity
[5] = Toxicity in IL2Rg-null NSG mouse xenografted with human MOLM-13 cells expressing GFP-Fluc assessed as drug tolerance at 2.5 mg/kg, ip bid treated for 18 days; assay type: organism-based; settings: in vivo, 432 h, time 18 day
[6] = Cytotoxicity in human PBMC cells at 62.5 to 1000 nM; assay type: toxicity, cell-based; settings: 1 µM, dose 62.5-1000 nM
NB-4 = assay: Antiproliferative activity against human NB4 cells incubated for 3 days by CCK8 assay; assay type: functional, cell-based; settings: NB-4, 72 h
MOLM-13 [7] = assay: Antiproliferative activity against human MOLM-13 cells assessed as cell viability at 0.1 uM incubated for 3 days by CCK8 assay relative to control; assay type: functional; settings: MOLM-13, 72 h, time 3 day, read-out: Activity
MOLM-13 [8] = assay: Induction of apoptosis in human MOLM-13 cells assessed as early apoptotic cells at 0.1 uM incubated for 24 hrs by Annexin V-APC/7-AAD staining based flow cytometry (reference value: 0.08 %); assay type: functional
KARPAS-299 = assay: Antiproliferative activity against human KARPAS-299 cells incubated for 3 days by CCK8 assay; assay type: functional, cell-based; settings: Homo sapiens, KARPAS-299, 72 h
MOLM-13 [9] = assay: Antiproliferative activity against human MOLM-13 cells incubated for 3 days by CCK8 assay; assay type: functional, cell-based; settings: MOLM-13, 72 h
THP-1 = assay: Antiproliferative activity against human THP-1 cells incubated for 3 days by CCK8 assay; assay type: functional, cell-based; settings: THP-1, 72 h
HL-60 = assay: Antiproliferative activity against human HL-60 cells incubated for 3 days by CCK8 assay; assay type: functional, cell-based; settings: HL-60, 72 h
MOLM-13 [10] = assay: Induction of apoptosis in human MOLM-13 cells assessed as late apoptotic cells at 0.1 uM incubated for 6 hrs by Annexin V-APC/7-AAD staining based flow cytometry (reference value: 0.01 %); assay type: functional
MOLM-13 [11] = assay: Antitumor activity against human MOLM-13 cells expressing GFP-Fluc xenografted in IL2Rg-null NSG mouse assessed as prolongation of median survival time at 2.5 mg/kg, ip bid treated for 21 days; assay type: functional, organism-based; settings: time 21.0 day
MOLM-13 [12] = assay: Antitumor activity against human MOLM-13 cells expressing GFP-Fluc xenografted in IL2Rg-null NSG mouse assessed as reduction in spleen weight at 2.5 mg/kg, ip bid treated for 21 days; assay type: functional, organism-based; settings: time 21.0 day
MOLM-13 [13] = assay: Induction of apoptosis in human MOLM-13 cells assessed as necrotic cells at 0.1 uM incubated for 24 hrs by Annexin V-APC/7-AAD staining based flow cytometry (reference value: 2.79 %); assay type: functional
MOLM-13 [14] = assay: Induction of apoptosis in human MOLM-13 cells assessed as viable cells at 0.1 uM incubated for 6 hrs by Annexin V-APC/7-AAD staining based flow cytometry (reference value: 97.12 %); assay type: functional; settings: read-out: Activity
[15] = molecular target: T1, Protein cereblon/Eukaryotic peptide chain release factor GTP-binding subunit ERF3A (Homo sapiens, UniProt Q96SW2+P15170); assay: PROTAC activity at CRBN/GSPT1 in human MOLM-13 cells assessed as GSPT1 degradation incubated for 24 hrs by Western blot analysis; assay type: cell-based
Target sequence in this assay (Q96SW2 whole entry): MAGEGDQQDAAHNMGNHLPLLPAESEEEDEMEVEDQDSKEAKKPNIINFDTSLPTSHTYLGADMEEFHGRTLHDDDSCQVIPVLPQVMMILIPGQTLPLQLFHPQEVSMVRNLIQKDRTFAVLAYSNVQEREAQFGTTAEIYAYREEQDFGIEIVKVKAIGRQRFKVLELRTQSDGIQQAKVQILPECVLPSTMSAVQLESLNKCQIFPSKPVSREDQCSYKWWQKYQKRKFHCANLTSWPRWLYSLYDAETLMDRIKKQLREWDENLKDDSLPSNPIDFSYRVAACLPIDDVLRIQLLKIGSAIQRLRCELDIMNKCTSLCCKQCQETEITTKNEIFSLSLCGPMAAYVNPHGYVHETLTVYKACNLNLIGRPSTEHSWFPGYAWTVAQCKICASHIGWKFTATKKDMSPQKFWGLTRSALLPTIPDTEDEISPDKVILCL
Target sequence in this assay (P15170 whole entry): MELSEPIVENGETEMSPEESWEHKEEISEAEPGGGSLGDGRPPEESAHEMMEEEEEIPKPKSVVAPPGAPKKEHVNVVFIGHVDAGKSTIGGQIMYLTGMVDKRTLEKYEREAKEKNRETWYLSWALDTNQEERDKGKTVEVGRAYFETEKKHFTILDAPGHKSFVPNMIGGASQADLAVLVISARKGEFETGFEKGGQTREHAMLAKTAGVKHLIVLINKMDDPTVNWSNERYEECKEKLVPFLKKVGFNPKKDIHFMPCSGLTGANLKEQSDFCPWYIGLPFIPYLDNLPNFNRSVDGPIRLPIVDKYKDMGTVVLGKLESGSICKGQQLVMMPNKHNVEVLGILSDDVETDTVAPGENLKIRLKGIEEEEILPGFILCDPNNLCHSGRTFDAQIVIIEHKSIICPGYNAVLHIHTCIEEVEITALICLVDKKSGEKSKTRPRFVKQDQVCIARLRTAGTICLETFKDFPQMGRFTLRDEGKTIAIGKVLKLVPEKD

MOLM-13 [16] = assay: Antitumor activity against human MOLM-13 cells expressing GFP-Fluc xenografted in IL2Rg-null NSG mouse assessed as reduction in GFP-positive leukemic cells in bone marrow at 2.5 mg/kg, ip bid treated for 21 days by flow cytometry; assay type: functional, organism-based; settings: time 21.0 day
[17] = molecular target: T1, Protein cereblon/Eukaryotic peptide chain release factor GTP-binding subunit ERF3A; assay: PROTAC activity at CRBN/GSPT1 in human MOLM-13 cells assessed as GSPT1 degradation at 100 nM incubated for 6 hrs by Western blot analysis; assay type: cell-based
Target sequence in this assay (P15170 whole entry, looked up): as the sequence (P15170 whole entry) above
Target sequence in this assay (Q96SW2 whole entry, looked up): as the sequence (Q96SW2 whole entry) above

SU-DHL-1 = assay: Antiproliferative activity against human SU-DHL-1 cells incubated for 3 days by CCK8 assay; assay type: functional, cell-based; settings: SU-DHL-1, 72 h
MOLM-13 [18] = assay: Induction of apoptosis in human MOLM-13 cells assessed as late apoptotic cells at 0.1 uM incubated for 24 hrs by Annexin V-APC/7-AAD staining based flow cytometry (reference value: 0.01 %); assay type: functional
MOLM-13 [19] = assay: Induction of apoptosis in human MOLM-13 cells assessed as early apoptotic cells at 0.1 uM incubated for 12 hrs by Annexin V-APC/7-AAD staining based flow cytometry (reference value: 0.08 %); assay type: functional
Daudi = assay: Antiproliferative activity against human Daudi cells incubated for 3 days by CCK8 assay; assay type: functional, cell-based; settings: 72 h
MOLM-13 [20] = assay: Induction of cell cycle arrest in human MOLM-13 cells assessed as accumulation at G1 phase at 0.1 uM incubated for 6 to 12 hrs by PI staining based flow cytometry; assay type: functional; settings: time 6-12 hrs
OCI-AML-3 = assay: Antiproliferative activity against human OCI-AML-3 cells incubated for 3 days by CCK8 assay; assay type: functional, cell-based; settings: Homo sapiens, OCI-AML-3, 72 h
[21] = molecular target: T2, Protein cereblon/Bromodomain-containing protein 4 (Homo sapiens, UniProt O60885+Q96SW2); assay: PROTAC activity at CRBN/BRD4 in human MOLM-13 cells assessed as BRD4 degradation incubated for 24 hrs by Western blot analysis; assay type: cell-based
T2 sequence (Q96SW2 whole entry, looked up, other chains not shown): as the sequence (Q96SW2 whole entry) above

MOLM-13 [22] = assay: Induction of apoptosis in human MOLM-13 cells assessed as necrotic cells at 0.1 uM incubated for 6 hrs by Annexin V-APC/7-AAD staining based flow cytometry (reference value: 2.79 %); assay type: functional
MOLM-13 [23] = assay: Induction of apoptosis in human MOLM-13 cells assessed as necrotic cells at 0.1 uM incubated for 12 hrs by Annexin V-APC/7-AAD staining based flow cytometry (reference value: 2.79 %); assay type: functional
MOLM-13 [24] = assay: Antitumor activity against human MOLM-13 cells expressing GFP-Fluc xenografted in IL2Rg-null NSG mouse assessed as reduction in GFP-positive leukemic cells in peripheral blood at 2.5 mg/kg, ip bid treated for 21 days by flow cytometry; assay type: functional, organism-based; settings: time 21.0 day
[25] = molecular target: T2, Protein cereblon/Bromodomain-containing protein 4; assay: PROTAC activity at CRBN/BRD4 in human MOLM-13 cells assessed as BRD4 degradation at 100 nM incubated for 6 hrs by Western blot analysis; assay type: cell-based
Raji = assay: Antiproliferative activity against human Raji cells incubated for 3 days by CCK8 assay; assay type: functional, cell-based; settings: 72 h
[26] = molecular target: T2, Protein cereblon/Bromodomain-containing protein 4; assay: PROTAC activity at CRBN/BRD4 in human MOLM-13 cells assessed as BRD4 degradation at 1 uM incubated for 24 hrs by Western blot analysis; assay type: cell-based
MOLM-13 [27] = assay: Antitumor activity against human MOLM-13 cells expressing GFP-Fluc xenografted in IL2Rg-null NSG mouse assessed as reduction in leukemia burden at 2.5 mg/kg, ip bid treated for 21 days by bioluminescence imaging based analysis; assay type: functional, organism-based; settings: time 21.0 day
MOLM-13 [28] = assay: Induction of apoptosis in human MOLM-13 cells assessed as late apoptotic cells at 0.1 uM incubated for 12 hrs by Annexin V-APC/7-AAD staining based flow cytometry (reference value: 0.01 %); assay type: functional
[29] = Toxicity in IL2Rg-null NSG mouse xenografted with human MOLM-13 cells expressing GFP-Fluc assessed as body weight change at 2.5 mg/kg, ip bid treated for 18 days; assay type: organism-based; settings: in vivo, 432 h, time 18 day

Cc1sc2c(c1C)C(c1ccc(Cl)cc1)=N[C@@H](CC(=O)N1CCN(CC3CCN(c4ccc5c(c4)C(=O)N(C4CCC(=O)NC4=O)C5=O)CC3)CC1)c1nnc(C)n1-2 (some centres not stated)
viability at 0.1 µM (MOLM-13 [1]): 57.8%
Activity (MOLM-13 [2]): 20.64%
Activity (MOLM-13 [3]): Active
viability at 0.1 µM (MOLM-13 [4]): 10.2%
Activity [5]: Non-toxic
Activity [6]: Non-toxic
pIC50 (NB-4): 8.57
viability at 0.1 µM (MOLM-13 [7]): 7.02%
Activity (MOLM-13 [8]): 67.5%
pIC50 (KARPAS-299): 7.59
pIC50 (MOLM-13 [9]): 8.07
pIC50 (THP-1): 7.75
pIC50 (HL-60): 8.09
Activity (MOLM-13 [10]): 0.3%
Activity (MOLM-13 [11]): Active
Activity (MOLM-13 [12]): Active; Compound Activity Consistent With Decreased Leukemic Infiltration
Activity (MOLM-13 [13]): 1.18%
viability at 0.1 µM (MOLM-13 [14]): 78.7%
DC50 [15]: 5.25 nM
Activity (MOLM-13 [16]): Active
Activity [17]: Active
pIC50 (SU-DHL-1): 8.20
Activity (MOLM-13 [18]): 21.1%
Activity (MOLM-13 [19]): 39.9%
pIC50 (Daudi): 8.05
Activity (MOLM-13 [20]): Active
pIC50 (OCI-AML-3): 7.84
DC50 [21]: 0.48 nM
Activity (MOLM-13 [22]): 0.36%
Activity (MOLM-13 [23]): 0.26%
Activity (MOLM-13 [24]): Active
Activity [25]: Active
pIC50 (Raji): 8.00
Activity [26]: Active
Activity (MOLM-13 [27]): Active
Activity (MOLM-13 [28]): 2.01%
Activity [29]: Non-toxic

From ChEMBL document CHEMBL6109072, “Discovery of highly potent dual GSPT1/BRD4 degraders with anti-AML activity” (Eur J Med Chem, 2025)
